Experimental data taken from patent US9133122B2, “Amide compounds, compositions and uses thereof” (EVOTEC AG, priority 2008, dated 2015).

Legend:
hP2X3 = target: T1, hP2X3 (Homo sapiens, UniProt P56373); test: Calcium uptake assay (Ca influx), P2X antagonist assay, P2X3 homomer; type: cell-based; conditions: inhibition of agonist-induced calcium influx
T1 construct: expressed in transfected cells
T1 sequence (P56373 1-397): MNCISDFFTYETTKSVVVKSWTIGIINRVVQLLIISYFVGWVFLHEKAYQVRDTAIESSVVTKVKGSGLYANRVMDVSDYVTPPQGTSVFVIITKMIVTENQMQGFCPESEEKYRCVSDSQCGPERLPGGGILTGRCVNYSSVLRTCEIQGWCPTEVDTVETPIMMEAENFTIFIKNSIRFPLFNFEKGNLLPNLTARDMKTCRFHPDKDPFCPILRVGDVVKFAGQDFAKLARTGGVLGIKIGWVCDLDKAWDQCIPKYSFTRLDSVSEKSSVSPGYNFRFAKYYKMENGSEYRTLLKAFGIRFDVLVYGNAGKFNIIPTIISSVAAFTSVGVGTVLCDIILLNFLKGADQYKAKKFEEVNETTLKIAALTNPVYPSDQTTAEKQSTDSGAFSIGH
Description: (§1) Human P2X3 (Accession no. NM_002559), P2X2 (Accession no. NM_170682) and Rat P2X3 (Accession no. NM_031075) and P2X2 (Accession no. NM_053656) are cloned into a mammalian expression vector (e.g., pcDNAS/TO or pcDNA3 Invitrogen). The human P2X2/3 chimera clone is created as described by Neelands et al, and then cloned into an expression vector as above. Receptors are expressed in cells (e.g., HEK293 or 1321N1 (obtained from the ECACC)) via transient transfection using standard lipid mediated transfection, or by creation of stable transfectants for each receptor. For expression of the P2X2/3 heteromeric receptor, the P2X3 expression vector is stably transfected into a cell line already stably expressing P2X2. P2X2/3 heteromer function is isolated using pharmacological methods. Cell lines are maintained in DMEM+5% Glutamax, the appropriate level of selective antibiotic, and 10% heat inactivated FBS.
(§2) Functional activity of compounds at the P2X receptor is determined by measuring their ability to inhibit agonist-induced calcium influx. Compounds are tested for antagonist activity against the P2X2/3 chimera, the P2X3 homomer, or the P2X2/3 heteromer. At the start of each screening day, the agonist EC50 is determined. Compound % inhibition or IC50s are subsequently determined using a predetermined agonist concentration (EC50-90 depending on cell line) as a stimulus. The agonists used are αβMeATP, ATP, or other ATP analogs. Compounds may be tested at concentrations ranging from 1 pM to 10 μM.
(§3) To test for antagonist activity, cells expressing the appropriate receptor are seeded onto 96 or 384 well plates 18-24 hours prior to assay. On the day of the assay, cells are loaded with calcium-sensitive fluorescent dye (e.g., Fluo-4 no wash reagent-Invitrogen cat#F36206, or the BD™ PBX Calcium Assay Kit-BD cat #640175) in Hank's Buffered Salt Solution (HBSS) with up to 10 mM supplemental CaCl2. Plates are incubated at 37° C. and then equilibrated at room temperature. Antagonism of agonist-induced calcium influx is measured using a fluorescent imaging plate reader (e.g. FLIPR^TETRA, Molecular Devices, Sunnyvale, Calif.). The assay comprises two stages: a pre-treatment phase followed by a treatment phase. Compounds may be tested as follows: For the pre-treatment phase, 50 μL of 3× concentration of test compound in HBSS is added to cells containing 100 μL of dye loading media to achieve a final concentration of 1× test compound. For the treatment phase, at a set interval after pre-treatment (1-30 minutes), 50 μL of 1× test compound plus 4× agonist solution is added, resulting in a final concentration of 1× compound and 1× agonist. Fluorescence is measured at 0.1-3 second intervals—with an excitation wavelength of 494 nm and an emission wavelength of 515 nm. Responses are measured as (peak fluorescence after agonist addition) minus (baseline fluorescence prior to treatment). Percent inhibition is calculated as follows:
(§4) [formula] IC50 values are determined by analyzing dose response data in a 4 parameter logistic fit using GraphPad Prizm.
(§5) The following compounds have been or can be prepared according to the synthetic methods described herein. A calcium uptake assay was performed as described above and the activity of each compound is expressed as follows: […]

hP2X2/3H = target: T2, hP2X2/3H (Homo sapiens, UniProt P56373+Q9UBL9); test: Calcium uptake assay (Ca influx), P2X antagonist assay, P2X2/3 heteromer; type: cell-based; conditions: inhibition of agonist-induced calcium influx
T2 construct: expressed in transfected cells
T2 sequence (P56373 1-397): T1 sequence (P56373 1-397)
T2 sequence (Q9UBL9 1-471): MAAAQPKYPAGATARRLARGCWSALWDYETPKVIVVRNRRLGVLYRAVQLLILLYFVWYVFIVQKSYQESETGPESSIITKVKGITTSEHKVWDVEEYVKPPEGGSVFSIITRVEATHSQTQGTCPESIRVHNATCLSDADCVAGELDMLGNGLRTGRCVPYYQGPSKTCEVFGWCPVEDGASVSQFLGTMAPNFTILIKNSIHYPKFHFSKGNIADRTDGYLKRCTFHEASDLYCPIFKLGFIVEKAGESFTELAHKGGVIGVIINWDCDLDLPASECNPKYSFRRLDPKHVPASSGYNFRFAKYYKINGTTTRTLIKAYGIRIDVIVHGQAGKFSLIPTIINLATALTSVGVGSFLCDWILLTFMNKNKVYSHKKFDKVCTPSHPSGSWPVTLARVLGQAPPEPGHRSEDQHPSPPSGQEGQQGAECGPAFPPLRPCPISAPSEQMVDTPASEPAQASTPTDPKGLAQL
Description: as §1, §2, §3, §4, §5

Row | Structure (SMILES) | IC50 (hP2X3) [nM] | IC50 (hP2X2/3H) [nM]
1 | Cc1ccc(-c2cc(C(=O)NCc3ccc(C)nc3)cc(-c3ccncc3)c2)cc1 [Compound 22, 4′-Methyl-5-pyridin-4-yl-biphenyl-3-carboxylic acid (6-methyl-pyridin-3-ylmethyl)-amide] | 191 | 143
2 | Cc1ccc(-c2cc(C(=O)NCc3ccc(C)nc3)cc(-c3cccc(N(C)C)c3)c2)cc1 [Compound 23, 3″-Dimethylamino-4-methyl-[1,1′;3′,1″]terphenyl-5′-carboxylic acid (6-methyl-pyridin-3-ylmethyl)-amide] | 431 | 4160
3 | Cc1ccc(-c2cc(C(=O)NCc3ccc(C)nc3)cc(-c3ccc(CO)cc3)c2)cc1 [Compound 26, 4″-Hydroxymethyl-4-methyl-[1,1′;3′,1″]terphenyl-5′-carboxylic acid (6-methyl-pyridin-3-ylmethyl)-amide] | 309 | 503
4 | Cc1ccc(-c2cc(C(=O)NCc3ccc(C)nc3)cc(-c3ccccc3C#N)c2)cc1 [Compound 27, 2″-Cyano-4-methyl-[1,1′;3′,1″]terphenyl-5′-carboxylic acid (6-methyl-pyridin-3-ylmethyl)-amide] | 195 | 142
5 | Cc1ccc(-c2cc(C(=O)NCc3ccc(C)nc3)cc(-c3ccccc3CN(C)C)c2)nc1 [Compound 28, 2′-Dimethylaminomethyl-5-(5-methyl-pyridin-2-yl)-biphenyl-3-carboxylic acid (6-methyl-pyridin-3-ylmethyl)-amide] | 66 | 83.5
6 | Cc1ccc(-c2cc(C(=O)NCc3cnc(C)nc3)cc(-c3ccc(C)cn3)c2)nc1 [Compound 29, 3,5-Bis-(5-methyl-pyridin-2-yl)-N-(2-methyl-pyrimidin-5-ylmethyl)-benzamide] | 25.8 | 219
7 | Cc1ccc(-c2cc(C(=O)N[C@H](C)c3cnc(C)nc3)cc(-c3ccccc3C#N)c2)nc1 [Compound 31, 2′-Cyano-5-(5-methyl-pyridin-2-yl)-biphenyl-3-carboxylic acid [(R)-1-(2-methyl-pyrimidin-5-yl)-ethyl]-amide] | 14.2 | 17.6

Next, values leading:

Row | IC50 (hP2X3) [nM] | IC50 (hP2X2/3H) [nM] | Structure (SMILES)
8 | 53.5 | 70.9 | COc1ccccc1-c1cc(C(=O)NCc2ccc(C)nc2)cc(-c2ccc(C)cn2)c1 [Compound 18, 2′-Methoxy-5-(5-methyl-pyridin-2-yl)-biphenyl-3-carboxylic acid (6-methyl-pyridin-3-ylmethyl)-amide]
9 | 61.4 | 238 | Cc1ccc(-c2cc(C(=O)NCc3ccc(C)nc3)cc(-c3ccncc3)c2)nc1 [Compound 19, 3-(5-Methyl-pyridin-2-yl)-N-(6-methyl-pyridin-3-ylmethyl)-5-pyridin-4-yl-benzamide]
10 | 38.5 | 70.5 | Cc1ccc(-c2cc(C(=O)NCc3ccc(C)nc3)cc(-c3cccnc3)c2)nc1 [Compound 20, 3-(5-Methyl-pyridin-2-yl)-N-(6-methyl-pyridin-3-ylmethyl)-5-pyridin-3-yl-benzamide]
11 | 192 | 914 | Cc1ccc(-c2cc(C(=O)NCc3ccc(C)nc3)cc(-c3ccccc3)c2)nc1 [Compound 21, 5-(5-Methyl-pyridin-2-yl)-biphenyl-3-carboxylic acid (6-methyl-pyridin-3-ylmethyl)-amide]
12 | 58 | 997 | Cc1ccc(-c2cc(C(=O)NCc3ccc(C)nc3)cc(-c3ccccn3)c2)nc1 [Compound 32, 3-(5-Methyl-pyridin-2-yl)-N-(6-methyl-pyridin-3-ylmethyl)-5-pyridin-2-yl-benzamide]
13 | 122 | 98.7 | Cc1ccc(-c2cc(C(=O)NCc3ccc(C)nc3)cc(-c3cccc(F)c3F)c2)nc1 [Compound 33, 2′,3′-Difluoro-5-(5-methyl-pyridin-2-yl)-biphenyl-3-carboxylic acid (6-methyl-pyridin-3-ylmethyl)-amide]
